Laboratory results as given in patent US11684599B2, “Very-long-chain polyunsaturated fatty acids, elovanoid hydroxylated derivatives, and methods of use” (Board of Supervisors of Louisiana State University and …, priority 2017, dated 2023).

How the values were obtained:
[1] = test system: ARPE-19 cells under UOS; test: Western blot of pro-survival and pro-apoptotic proteins in RPE cells under UOS; type: cell-based, human; conditions: for Prohibitin (type-1) expression: sodium salts and methyl ester forms, concentration-dependent 100-200 nM; for pro-apoptotic Bax / pro-apoptotic Bid / pro-apoptotic Bim: sodium salts or methyl esters
Method: ARPE19 cells at 75-80% confluence (72 h growth in DMEM/F12+10% FBS) in 6-well plates were serum-starved for 8 h before exposure. The serum-starved cells were treated with TNF-α (Sigma-Aldrich, St. Louis, Mo.) (10 ng/ml) and H2O2 (600 μM) to induce oxidative stress and challenged with increasing concentrations (50-500 nM) of VLC-PUFA (C32:6n3 and C34:6n3) simultaneously with oxidative stress for 16 h (apoptosis) and 6 h (Western-blot) before detection of apoptosis and harvesting for protein analysis. In some experiments, DHA at a concentration of 100 nM and 15-LOX-1 inhibitor PD146176 at a concentration of 1 μM was added to treat the RPE cells under stress. Cell extracts were made and protein concentrations adjusted by Bio-Rad (Hercules, Calif.) protein reagent and used for Western blot analysis.
Bcl-2 family proteins, SIRT1 and Proinhibitin (type-1), and Iduna proteins were analyze by Western blot analysis. In brief, 20-25 μg equivalents of each cell extracts were subject to electrophoresis on a 4-12% gel (Promega) at 125 V for 2 h. The proteins were transferred to nitrocellulose membrane by I-blot transfer apparatus. The membranes were subjected to treatment with primary antibodies specific for Bcl-2, Bcl-xL, Bax, Bid, Bim, SIRT1 and Prohibitin (type-1) (Santa Cruz Biotechnology) and Iduna antibody (Neuro-Mab Lab, UCLA, Los Angeles, Calif.) overnight at 4° C. and probed for 45 mins with secondary antibody, goat anti-mouse Ig:horseradish peroxidase, and horseradish peroxidase-conjugated anti-biotin antibody, and then proteins were evaluated by using an ECL kit (Amersham).

[2] = test system: cerebral-cortical mixed neuronal cells and hippocampal neurons; test: NMDA excitotoxicity of neurons in culture, cell viability; type: cell-based, rat
Source text: Primary cultures of cortical and hippocampal neurons were harvested from 18-day-old embryos (E18) taken from timed-pregnant, two-month-old Sprague-Dawley (SD) rats (Charles River Lab., Wilmington, Mass.). Briefly, timed-pregnant SD rats were euthanized and embryos were collected in sterile conditions. Embryonic brains were dissected out by forceps on ice and placed in a petri dish containing ice-cold Hank's Balanced Salt Solution (HBSS) (GIBCO). Meninges were removed under a dissecting microscope and cortical tissues were chopped into small pieces with micro-spring scissors. These tissues were transferred to 15 ml tubes containing trypsin-EDTA (0.025% in HBSS) and DNase I. The tubes were incubated in 37° C. chamber for 15 mins and were agitated every 5 mins. After stopping the trypsinization with 5 ml 10% FBS, these tissues were triturated 15 times with a fire polished Pasteur pipet. Cell clumps were left to settle for 2 mins and the supernatant was transferred to a 15 ml Eppendorf tube. The supernatant was filtered through a 70 μm pore-sized filter (Corning cell strainer) and centrifuged for 5 mins at 1000 rpm. The cells were then resuspended in Neurobasal medium (GIBCO) containing 2% B27 (GIBCO) and 2% N2 (GIBCO) supplements, along with 0.5 mM glutamine, 50 U/ml penicillin/streptomycin.
Cells were counted using a Neubauer hemocytometer. 1×10^6 cells were seeded on poly-D-lysine-coated 12 well cell culture dish (CORNING) and cultured in incubator (37° C., 5% CO2). Culture medium was first replaced after 24 h, then half of the medium was replaced with fresh medium every three days. As a result, approximately, 90% purity of neurons was obtained as determined by class-III-β tubulin, GFAP and Hoechst 33258 staining. Cells were maintained in culture for about 2 weeks until they were exposed to uncompensated oxidative stress, OGD, or NMDA excitotoxicity.
After 90 mins of OGD exposure, cells were returned to the original medium (Neurobasal medium (GIBCO) containing 2% B27 (GIBCO) and 2% N2 (GIBCO) supplements, along with 0.5 mM glutamine, 50 U/ml penicillin/streptomycin) and placed in a normoxic chamber (37° C., 5% CO2) for 2 h. Then the medium was changed with medium containing either ELV-N32 or ELV-N34 [500 nM] and maintained in a normoxic chamber (37° C., 5% CO2) for 12 h, after which cells were sampled and assayed for cell viability using different methods as previously described (25-28). Cerebral cortical mixed neuronal cells or hippocampal cells in culture were exposed to either NMDA or uncompensated oxidative stress (UOS) for 12 h by addition of either NMDA (25 μM, 50 μM, or 100 μM) concentration or by the addition of TNFα (10 ng/mL) and H2O2 (50 μM, 100 μM, or 200 μM). Cell viability and neuroprotection in the presence of ELV-N32, ELV-N34, 32:6, or 34:6 were assayed after 12 h.
Cells were washed with 1× Dulbecco's Phosphate Buffered Saline (DPBS) containing no calcium or magnesium (GIBCO) and fixed for 10 mins using ice-cold 4% paraformaldehyde (PFA) followed by 15 mins incubation in 100% methanol. Cells were washed with 1× Phosphate Buffered Saline (PBS) pH 7.4 (GIBCO) and incubated in PBS containing 20 μM Hoechst 33258 (Molecular Probes) for 20 mins. Cells were then washed 3 times with 1×PBS and stored in 1×PBS at 4° C. until they were imaged for microscopy.
One 4×4 tile mosaic was acquired from the center of each well using a Zeiss 510 Meta laser confocal microscope and LSM 510 Meta software. Images were imported into image analysis software ImageJ (National Institutes of Health, Bethesda, Md.) and batch processed using custom macros. An Otsu auto threshold was applied to each image of Hoechst-stained nuclei, and the area of each detected object was recorded. Objects with areas <10 μm^2 were excluded from analysis. To estimate percentage non-pyknotic nuclei, a size cutoff value was chosen above which objects were assumed to be non-pyknotic. […]

[3] = test system: primary human RPE cells; test: UOS-induced cell death in primary human RPE cells (Hoechst staining); type: cell-based; conditions: NPD1 200 nM, 16 h; H2O2 (800 μM) alone 50% cell death
Method: Primary human retinal pigment epithelia (RPE) cells, prepared from donor eyes without eye pathology, were plated and transformed after passage eight. Cells were cultured in T75 flasks in MEM medium containing 10% FBS, 5% NCS, MEM-NEAA (ThermoFisher Scientific, Waltham, Mass.), 1× penicillin/streptomycin and 10 ng/ml FGF at 37° C. 5% CO2, 99% relative humidity for 24-48 h followed by a 24-h incubation with 10 μM free 32:6 and 34:6 fatty acid mixture.
For cell viability assay experiments hRPE cells were treated concomitantly with NPD1 (200 nM), 32-6, 34-6 (3 μM each) fatty acids or both 32-6 and 34-6 simultaneously. The hRPE medium was supplemented with 3 μM of 32-6 and 34-6 for the entire duration of the experiment. 15 lox-1 inhibitor (10 μM) was added to the cells 1 hour prior the OS induction and kept throughout the experiment. Cells were fixed with 4% PFA and stained with Hoescht.
To assess cell death, hRPE and ARPE-19 cells were fixed with methanol for 15 mins, washed with 1×PBS then loaded with 2 μM Hoechst dissolved in a Locke's solution (Promega) and incubated for another 15 mins before imaging. Cells were then viewed by using a Zeiss LSM 510 confocal microscope under UV fluorescence. Images were recorded and cell apoptosis was assessed by using an automated unbiased method.

[4] = test system: ARPE-19 cells; test: UOS-induced apoptosis in ARPE-19 cells (Hoechst-positive pyknotic cells); type: cell-based, human; conditions: 1 μM, RPE cells undergoing UOS
Method: FIGS. 6A and 6B depicts immunostaining of primary human RPE cells using specific markers ZO-1 (Zona occludens-1), RPE65, MITF (Micro-ophtalmia-associated Transcription Factor) and β-catenin, as well as light microscopy depicting primary human RPE cell morphology at different passages in culture. ARPE-19 cells were grown and maintained in T-75 mM flasks in DMEM F-12 medium containing 10% FBS and incubated at 37° C. with a constant supply of 5% CO2. Cells at 75-80% confluence (72 h growth in DMEM/F12+10% FBS) in 6-well plates were serum-starved for 8 h before exposure. The serum-starved cells were treated with TNF-α (Sigma-Aldrich, St. Louis, Mo.) (10 ng/ml) and H2O2 (600 μM) to induce oxidative stress and challenged with increasing concentrations (50-500 nM) of VLC-PUFA (C32:6n3 and C34:6n3) simultaneously with oxidative stress for 16 h (apoptosis) and 6 h (Western-blot) before detection of apoptosis and harvesting for protein analysis. In some experiments, DHA at a concentration of 100 nM and 15-LOX-1 inhibitor PD146176 at a concentration of 1 μM was added to treat the RPE cells under stress. Cell extracts were made and protein concentrations adjusted by Bio-Rad (Hercules, Calif.) protein reagent and used for Western blot analysis. To assess cell death, hRPE and ARPE-19 cells were fixed with methanol for 15 mins, washed with 1×PBS then loaded with 2 μM Hoechst dissolved in a Locke's solution (Promega) and incubated for another 15 mins before imaging. Cells were then viewed by using a Zeiss LSM 510 confocal microscope under UV fluorescence. Images were recorded and cell apoptosis was assessed by using an automated unbiased method.

Molecule | Prohibitin (type-1) expression [1] | pro-apoptotic Bax [1] | pro-apoptotic Bid [1] | pro-apoptotic Bim [1] | other results
CC/C=C\C[C@H](O)\C=C/C=C/C=C/[C@H](O)C/C=C\C/C=C\CCCCCCCCCCCCC(=O)O [ELV-N32, (14Z,17Z,20R,21E,23E,25Z,27S,29Z)-20,27-dihydroxydo-triaconta-14,17,21,23,25,29-hexaenoic acid] | upregulated | decreased | decreased | decreased | –
CC/C=C\C[C@H](O)\C=C/C=C/C=C/[C@H](O)C/C=C\C/C=C\CCCCCCCCCCCCCCC(=O)O [ELV-N34, (16Z,19Z,22R,23E,25E,27Z,29S,31Z)-22,29-dihydroxytetra-triaconta-16,19,23,25,27,31-hexaenoic acid] | upregulated | decreased | decreased | decreased | NMDA-induced neuronal death ([2]; ELV (Na or Me) 200 nM or 500 nM added along with NMDA 25, 50 or 100 μM, 12 h): compensated for
CC/C=C\C[C@H](O)\C=C/C=C/C=C/[C@H](O)C/C=C\C/C=C\CCC(=O)O [NPD1, 10R,17S-dihydroxy-docosa-4Z,7Z,11E,13E,15Z,19Z-hexaenoic acid] | – | – | – | – | apoptosis [3]: 11%
c1ccc2c(c1)SCc1c-2[nH]c2ccccc12 [PD146176, reference compound] | – | – | – | – | effect of 15-LOX-1 inhibitor on ELV-mediated inhibition of apoptosis [4]: compensate for ELV-mediated inhibition of apoptosis; effect of 15-LOX-1 inhibitor on ELV-induced upregulation ([1]; 1 μM, ARPE-19 cells undergoing UOS): blocked these effects
MK801 maleate [reference compound] | – | – | – | – | NMDA excitotoxicity ([2]; 10 μM): overcome
